These results are taken from US20190290650A1, “FORMULATIONS/COMPOSITIONS COMPRISING A BTK INHIBITOR” (Janssen Pharmaceutic NV, priority 2016, published 2019).

Structures are written as SMILES. Where two headings read alike, the source gives them in different places.

Data set [1] concerns OCI-Ly10. Kind of data set: Growth inhibition of OCI-Ly10 (ABC-DLBCL) cells. The format is cell-based. As to conditions: Homo sapiens. From the text:
See U.S. Pat. No. 7,711,492 and Staudt et al., Nature, Vol. 463, Jan. 7, 2010, pp. 88-92, the contents of which are incorporated by reference in their entirety.

The conditions of data set [2]: general statement, no test described; cited from earlier work.

Usually EC50 stands for the concentration that produces a half-maximal response. As to `C=CC(=O)N1CCC[C@@H](n2nc(-c3ccc(Oc4ccccc4)cc3)c3c(N)ncnc32)C1` [Compound 1, 1-((R)-3-(4-amino-3-(4-phenoxyphenyl)-1H-pyrazolo[3,4-d]pyrimidin-1-yl)piperidin-1-yl)prop-2-en-1-one], the EC50 in data set [1] (continuous exposure, read-out: EC50 continuous exposure (growth of OCI-Ly10)) is 10 nM; in data set [1] (read-out: EC50 1 hour pulse (growth of OCI-Ly10), 1 hour pulse), 50 nM. Besides, the Water solubility entry in data set [2] is reported as “very low water solubility”.
